“Also recorded” adds a separate entry of the source. Where two headings read alike, the source gives them in different places.
What was measured:
A549 cell line = test: Cytotoxicity by MTT assay, A549 cell line; assay type: cell-based, Human; settings: for IC50: A549 cell line, purified compounds, incubation of 2 days, read-out: IC 50 of the Compounds Purified from Independent Synthesis, A549
Experimental: (§1) The cell lines were used in the present invention, including A549 (Human type II epithelial cell line, from American Type Culture Collection, Manassas, Va.) and MCF7 (solid human estrogen receptor positive breast carcinoma). A 10 μl coupling product solution was added into the well of microtiterplate planted with 100 μl of above mentioned cell lines in a concentration of 30000 cells/mL. Furthermore, the coupling product in each well was diluted before transferring to the plate. Thus the appropriate working concentration could be determined since the cellular survival ratio of most compounds acting as negative control is greater than 80%. The method was illustrated in FIG. 3. After an incubation of 2 days, the supernatants were washed, followed by adding MTT reagents. After 4 hours, absorbance at 580 nm was recorded according to the usual protocol.

MCF7 cell line = test: Cytotoxicity by MTT assay, MCF7 cell line; assay type: cell-based, human; settings: for IC50: MCF7 cell line, purified compounds, incubation of 2 days, read-out: IC 50 of the Compounds Purified from Independent Synthesis, MCF7; for biological activity (cytotoxicity) in crude library assay: crude coupling products, MCF7 (FIGS. 4a-c; cell line not always given)
Experimental: as §1

| SMILES | IC50 (A549 cell line) [µM] | IC50 (MCF7 cell line) [µM] | biological activity (cytotoxicity) in crude library assay (MCF7 cell line) | biological activity (cytotoxicity) in crude library assay (A549 cell line; crude coupling products, A549) | IC50 (A549 cell line; Homo sapiens, 48 h) [µM] | IC50 (MCF7 cell line; Homo sapiens, 48 h) [µM] |
| --- | --- | --- | --- | --- | --- | --- |
| C=C(CC)C(=O)c1ccc(OCC(=O)NC[C@H]2O[C@@H](n3ccc(=O)[nH]c3=O)C[C@@H]2O)c(Cl)c1Cl [A15] | > 100 | > 100 | exhibited biological activity | – | – | – |
| O=C(NCC1OC(n2ccc(=O)[nH]c2=O)CC1O)c1cccc(C(=O)c2ccc(F)cc2)c1 (centres unmarked) [A16] | > 100 | > 100 | – | – | – | – |
| C=C(CC)C(=O)c1ccc(OCC(=O)NCCCC)c(Cl)c1Cl [C15] | 18 | 8 ± 5 | exhibited biological activity | – | – | – |
| CCCCNC(=O)c1cccc(C(=O)c2ccc(F)cc2)c1 [C16] | > 100 | > 100 | – | – | – | – |
| CCCCNC(=O)CCC(=O)c1ccc(-c2ccccc2)cc1 [C18] | 100 | 87 | exhibited biological activity; also recorded: unexpected bioactivity | unexpected bioactivity | – | – |
| N.N.[Cl][Pt][Cl] [Cisplatin, reference compound] | 8 ± 3 | 25 ± 6 | – | – | – | – |
| C=C(CC)C(=O)c1ccc(OCC(=O)O)c(Cl)c1Cl [D15, 2-(2,3-dichloro-4-(2-methylenebutanoyl)phenoxy)acetic acid, reference compound] | – | – | – | – | 84 ± 16 | 26 ± 2 |
| O=C(O)c1cccc(C(=O)c2ccc(F)cc2)c1 [D16, 3-(4-fluorobenzoyl)benzoic acid, reference compound] | – | – | – | – | > 100 | > 100 |
| O=C(O)CCC(=O)c1ccc(-c2ccccc2)cc1 [D18, 4-([1,1′-biphenyl]-4-yl)-4-oxobutanoic acid, reference compound] | – | – | – | – | > 100 | > 100 |
| O=C(NCC1OC(n2ccc(=O)[nH]c2=O)C(O)C1O)c1ccccc1 (centres unmarked) [U1] | > 100 | > 100 | – | – | – | – |
| O=C(CCC(=O)c1ccc(-c2ccccc2)cc1)NCC1OC(n2ccc(=O)[nH]c2=O)C(O)C1O (centres unmarked) [U18] | > 100 | > 100 | – | – | – | – |
| CCCCCCCCCCCC(=O)NC[C@H]1O[C@@H](n2ccc(=O)[nH]c2=O)[C@H](O)[C@@H]1O [U27] | > 100 | ~100 | exhibited biological activity; also recorded: subtle cytotoxicity | – | – | – |

Source: US20110245088A1, “AMIDE-BASED SOLUTION-PHASE DERIVED LIBRARY AND METHOD FOR SCREENING THEREOF” (NATIONAL TSING HUA UNIVERSITY, priority 2010, published 2011)
